# Experiments:
# Type in all cases: biochemical
# [1] = target: T1, human Akt2 kinase (kinase domain residues K146-R480) (Homo sapiens, UniProt P31751); assay: Akt2 kinase assay, Luciferase-Coupled Chemiluminescent Kinase assay (LCCA); conditions: 2 μM ATP, 10 nM Akt2; read-out: Akt-2 inhibition IC50
# T1 construct: human Akt2 kinase domain residues K146-R480; made in house
# Procedure: Kinase activity and compound inhibition are investigated using one or more of the three assay formats described below. The ATP concentrations for each assay are selected to be close to the Michaelis-Menten constant (KM) for each individual kinase. Dose-response experiments are performed at 10 different inhibitor concentrations in a 384-well plate format. The data are fitted to four-parameter equation (2) below; where Y is the observed signal, X is the inhibitor concentration, Min is the background signal in the absence of enzyme (0% enzyme activity), Max is the signal in the absence of inhibitor (100% enzyme activity), IC50 is the inhibitor concentration at 50% enzyme inhibition and H represents the empirical Hill's slope to measure the cooperativity. Typically H is close to unity. Y=Min+(Max−Min)/(1+(X/IC50)^H) Equation (2) p70S6 Kinase Assay
# Biochemical activity of Akt2 kinase was assessed using a Luciferase-Coupled Chemiluminescent Kinase assay (LCCA) format. Kinase activity was measured as the percent ATP remaining following the kinase reaction. Remaining ATP was detected by luciferase-luciferin-coupled chemiluminescence. Specifically, the reaction was initiated by mixing test compounds, 2 μM ATP, 5 μM crosstide peptide and 10 nM Akt2 (baculovirus expressed human Akt2 kinase domain residues K146-R480) in a 20 uL assay buffer (20 mM Tris-HCL pH 7.5, 10 mM MgCl2, 0.03% Triton X-100, 1 mM DTT, 3 mM MnCl2). The mixture is incubated at ambient temperature for 2 hours after which 20 μL luciferase-luciferin mix is added and the chemiluminescent signal read using a Wallac Victor2 reader. The luciferase-luciferin mix consists of 50 mM HEPES, pH 7.8, 8.5 μg/mL oxalic acid (pH 7.8), 5 (or 50) mM DTT, 0.4% Triton X-100, 0.25 mg/mL coenzyme A, 63 uM AMP, 28 μg/mL luciferin and 40,000 units/mL luciferase.
# [2] = target: T2, human Akt1 kinase (kinase domain residues R144-A480, activated with PDK1) (Homo sapiens, UniProt P31749); assay: Akt1 kinase assay, Luciferase-Coupled Chemiluminescent Kinase assay (LCCA); conditions: 1 μM ATP, 1.3 nM Akt1; read-out: Akt-1 inhibition IC50
# T2 construct: made in house
# T2 sequence (P31749 144-480): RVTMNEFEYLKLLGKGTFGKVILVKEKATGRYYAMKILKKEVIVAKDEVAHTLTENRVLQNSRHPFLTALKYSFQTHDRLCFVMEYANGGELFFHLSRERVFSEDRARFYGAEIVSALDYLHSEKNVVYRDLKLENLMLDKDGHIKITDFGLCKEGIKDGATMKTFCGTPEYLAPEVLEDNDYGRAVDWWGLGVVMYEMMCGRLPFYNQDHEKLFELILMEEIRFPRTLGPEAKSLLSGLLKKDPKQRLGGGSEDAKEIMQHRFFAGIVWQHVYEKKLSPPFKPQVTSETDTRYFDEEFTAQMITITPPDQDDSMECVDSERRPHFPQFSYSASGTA
# Summary of the method: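 Baculovirus-expressed PDK1-activated Akt1 kinase domain (R144-A480), 1.3 nM, with 5 μM crosstide and 1 μM ATP in Tris pH 7.5 with MgCl2/MnCl2, 3 h at ambient temperature. Remaining ATP read by luciferase-luciferin chemiluminescence; 10-point IC50 from four-parameter fit.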
# [3] = target: T3, human p70S6 kinase (p70S6K, kinase domain residues 1-421, T412E mutation) (Homo sapiens, UniProt P23443, T412E); assay: p70S6 kinase assay, Luciferase-Coupled Chemiluminescent Kinase assay (LCCA); conditions: 5 μM ATP, 12 nM p70S6K; read-out: p70S6K inhibition IC50
# T3 construct: human p70S6 kinase domainresidues 1-421, containing a T412E mutation; made in house
# T3 sequence (P23443 1-421 T412E): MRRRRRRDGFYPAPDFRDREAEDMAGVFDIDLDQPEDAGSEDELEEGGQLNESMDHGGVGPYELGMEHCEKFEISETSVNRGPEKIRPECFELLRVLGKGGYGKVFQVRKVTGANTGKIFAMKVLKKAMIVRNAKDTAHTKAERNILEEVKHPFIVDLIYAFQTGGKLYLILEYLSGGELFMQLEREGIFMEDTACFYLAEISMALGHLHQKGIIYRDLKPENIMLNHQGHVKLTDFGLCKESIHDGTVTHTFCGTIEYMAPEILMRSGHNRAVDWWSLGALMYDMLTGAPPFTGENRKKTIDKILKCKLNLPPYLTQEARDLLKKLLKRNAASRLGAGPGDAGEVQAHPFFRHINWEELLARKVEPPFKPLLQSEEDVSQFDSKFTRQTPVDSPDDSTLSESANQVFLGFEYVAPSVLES
# Summary of the method: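 Baculovirus-expressed kinase domain (12 nM) reacted 2 h at ambient temperature with 5 μM ATP and 5 μM RRRLSSLRA peptide. Buffer was Tris pH 7.5 with MgCl2, MnCl2, DTT and Triton X-100. Remaining ATP was read by luciferase-luciferin chemiluminescence. IC50 came from 10-point dose-response with a four-parameter Hill fit.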
# T1 sequence (P31751 146-480): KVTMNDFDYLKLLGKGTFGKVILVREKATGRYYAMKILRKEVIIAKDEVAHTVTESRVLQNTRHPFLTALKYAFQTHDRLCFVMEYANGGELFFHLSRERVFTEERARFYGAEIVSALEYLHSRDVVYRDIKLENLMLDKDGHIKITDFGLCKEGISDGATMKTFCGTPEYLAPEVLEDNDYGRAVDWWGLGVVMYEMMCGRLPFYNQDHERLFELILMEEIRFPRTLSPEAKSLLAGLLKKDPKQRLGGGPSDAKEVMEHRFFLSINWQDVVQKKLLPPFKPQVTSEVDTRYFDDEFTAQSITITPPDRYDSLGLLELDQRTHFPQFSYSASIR
SMILES,IC50 [1],IC50 [2],IC50 [3]
"Brc1n[nH]c2ncnc(N3CCN(Cc4ccc(-c5ccccc5)cc4)CC3)c12 [Entry 30, 4-[4-(biphenyl-4-ylmethyl)piperazin-1-yl]-3-bromo-1H-pyrazolo[3,4-d]pyrimidine]",> 2 µM,> 2 µM,< 0.05 µM
"C[C@H]1CN(c2ncnc3[nH]nc(Br)c23)CCN1Cc1ccc(Cl)cc1 [Entry 31, 3-bromo-4-{(3S)-4-[(4-chlorophenyl)methyl]-3-methylpiperazin-1-yl}-1H-pyrazolo[3,4-d]pyrimidine]",> 2 µM,0.5 to 2 µM,< 0.05 µM
"COc1ccc(CN2CCN(c3ncnc4[nH]nc(Br)c34)CC2)cc1 [Entry 32, 3-bromo-4-(4-{[4-(methyloxy)phenyl]methyl}piperazin-1-yl)-1H-pyrazolo[3,4-d]pyrimidine]",> 2 µM,0.5 to 2 µM,< 0.05 µM
"O=C(Nc1cccc(C(F)(F)F)c1)N1CCN(c2ncnc3[nH]nc(Br)c23)CC1 [Entry 33, 4-(3-bromo-1H-pyrazolo[3,4-d]pyrimidin-4-yl)-N-[3-(trifluoromethyl)phenyl]piperazine-1-carboxamide]",> 2 µM,> 2 µM,< 0.05 µM
"Fc1ccc(CN2CCN(c3ncnc4[nH]nc(Br)c34)CC2)cc1 [Entry 34, 3-bromo-4-{4-[(4-fluorophenyl)methyl]piperazin-1-yl}-1H-pyrazolo[3,4-d]pyrimidine]",> 2 µM,0.5 to 2 µM,< 0.05 µM
"Brc1n[nH]c2ncnc(N3CCN(Cc4ccc5c(c4)OCCO5)CC3)c12 [Entry 36, 3-bromo-4-[4-(2,3-dihydro-1,4-benzodioxin-6-ylmethyl)piperazin-1-yl]-1H-pyrazolo[3,4-d]pyrimidine]",> 2 µM,> 2 µM,< 0.05 µM
"Brc1n[nH]c2ncnc(N3CCN(Cc4ccc5c(c4)OCO5)CC3)c12 [Entry 37, 4-[4-(1,3-benzodioxol-5-ylmethyl)piperazin-1-yl]-3-bromo-1H-pyrazolo[3,4-d]pyrimidine]",> 2 µM,0.5 to 2 µM,< 0.05 µM
"O=C(c1ccc(Cl)cc1)C1CCN(c2ncnc3[nH]nc(Br)c23)CC1 [Entry 38, [1-(3-bromo-1H-pyrazolo[3,4-d]pyrimidin-4-yl)piperidin-4-yl](4-chlorophenyl)methanone]",> 2 µM,0.5 to 2 µM,< 0.05 µM
"Brc1n[nH]c2ncnc(N3CCN(Cc4ccc(Oc5ccccc5)cc4)CC3)c12 [Entry 39, 3-bromo-4-(4-{[4-(phenyloxy)phenyl]methyl}piperazin-1-yl)-1H-pyrazolo[3,4-d]pyrimidine]",> 2 µM,> 2 µM,< 0.05 µM
"CN(C)c1ccc(CN2CCN(c3ncnc4[nH]nc(Br)c34)CC2)cc1 [Entry 41, 4-{[4-(3-bromo-1H-pyrazolo[3,4-d]pyrimidin-4-yl)piperazin-1-yl]methyl}-N,N-dimethylaniline]",> 2 µM,> 2 µM,< 0.05 µM
"O=C(/C=C/c1ccccc1)N1CCN(c2ncnc3[nH]nc(Br)c23)CC1 [Entry 43, 3-bromo-4-{4-[(2E)-3-phenylprop-2-enoyl]piperazin-1-yl}-1H-pyrazolo[3,4-d]pyrimidine]",> 2 µM,> 2 µM,< 0.05 µM
"Brc1ccccc1CN1CCN(c2ncnc3[nH]nc(Br)c23)CC1 [Entry 45, 3-bromo-4-{4-[(2-bromophenyl)methyl]piperazin-1-yl}-1H-pyrazolo[3,4-d]pyrimidine]",> 2 µM,> 2 µM,< 0.05 µM
"Clc1ccccc1CN1CCN(c2ncnc3[nH]nc(Br)c23)CC1 [Entry 46, 3-bromo-4-{4-[(2-chlorophenyl)methyl]piperazin-1-yl}-1H-pyrazolo[3,4-d]pyrimidine]",> 2 µM,> 2 µM,< 0.05 µM
"Clc1ccc(CN2CCN(c3ncnc4[nH]nc(Br)c34)CC2)c(Cl)c1 [Entry 47, 3-bromo-4-{4-[(2,4-dichlorophenyl)methyl]piperazin-1-yl}-1H-pyrazolo[3,4-d]pyrimidine]",> 2 µM,0.5 to 2 µM,< 0.05 µM
"Fc1ccc(CN2CCN(c3ncnc4[nH]nc(Br)c34)CC2)c(Cl)c1 [Entry 48, 3-bromo-4-{4-[(2-chloro-4-fluorophenyl)methyl]piperazin-1-yl}-1H-pyrazolo[3,4-d]pyrimidine]",> 2 µM,> 2 µM,< 0.05 µM
"Brc1n[nH]c2ncnc(N3CCN(Cc4ccccc4)CC3)c12 [Entry 50, 3-bromo-4-[4-(phenylmethyl)piperazin-1-yl]-1H-pyrazolo[3,4-d]pyrimidine]",> 2 µM,> 2 µM,0.05 to 0.5 µM
"O=C(CN1CCN(c2ncnc3[nH]nc(Br)c23)CC1)Nc1ccccn1 [Entry 51, 2-[4-(3-bromo-1H-pyrazolo[3,4-d]pyrimidin-4-yl)piperazin-1-yl]-N-pyridin-2-ylacetamide]",> 2 µM,> 2 µM,0.05 to 0.5 µM
"Brc1n[nH]c2ncnc(N3CCN(Cc4ncc[nH]4)CC3)c12 [Entry 52, 3-bromo-4-[4-(1H-imidazol-2-ylmethyl)piperazin-1-yl]-1H-pyrazolo[3,4-d]pyrimidine]",> 2 µM,> 2 µM,0.05 to 0.5 µM
"Brc1n[nH]c2ncnc(N3CCN(Cc4cccc(Oc5ccccc5)c4)CC3)c12 [Entry 53, 3-bromo-4-(4-{[3-(phenyloxy)phenyl]methyl}piperazin-1-yl)-1H-pyrazolo[3,4-d]pyrimidine]",> 2 µM,> 2 µM,0.05 to 0.5 µM
"Cc1cccc(CN2CCN(c3ncnc4[nH]nc(Br)c34)CC2)c1 [Entry 54, 3-bromo-4-{4-[(3-methylphenyl)methyl]piperazin-1-yl}-1H-pyrazolo[3,4-d]pyrimidine]",> 2 µM,> 2 µM,0.05 to 0.5 µM
"N#Cc1cccc(CN2CCN(c3ncnc4[nH]nc(Br)c34)CC2)c1 [Entry 55, 3-{[4-(3-bromo-1H-pyrazolo[3,4-d]pyrimidin-4-yl)piperazin-1-yl]methyl}benzonitrile]",> 2 µM,> 2 µM,0.05 to 0.5 µM
"Fc1cccc(Cl)c1CN1CCN(c2ncnc3[nH]nc(Br)c23)CC1 [Entry 56, 3-bromo-4-{4-[(2-chloro-6-fluorophenyl)methyl]piperazin-1-yl}-1H-pyrazolo[3,4-d]pyrimidine]",> 2 µM,> 2 µM,0.05 to 0.5 µM
"CC(c1ccccc1)N1CCN(c2ncnc3[nH]nc(Br)c23)CC1 (stereo not drawn) [Entry 57, 3-bromo-4-[4-(1-phenylethyl)piperazin-1-yl]-1H-pyrazolo[3,4-d]pyrimidine]",> 2 µM,> 2 µM,0.05 to 0.5 µM
"Brc1n[nH]c2ncnc(N3CCN(Cc4ccncc4)CC3)c12 [Entry 58, 3-bromo-4-[4-(pyridin-4-ylmethyl)piperazin-1-yl]-1H-pyrazolo[3,4-d]pyrimidine]",> 2 µM,> 2 µM,0.05 to 0.5 µM
"Brc1n[nH]c2ncnc(N3CCN(Cc4cccnc4)CC3)c12 [Entry 60, 3-bromo-4-[4-(pyridin-3-ylmethyl)piperazin-1-yl]-1H-pyrazolo[3,4-d]pyrimidine]",> 2 µM,> 2 µM,0.05 to 0.5 µM
"COc1ccc(CN2CCN(c3ncnc4[nH]nc(Br)c34)CC2)c(OC)c1OC [Entry 61, 3-bromo-4-(4-{[2,3,4-tris(methyloxy)phenyl]methyl}piperazin-1-yl)-1H-pyrazolo[3,4-d]pyrimidine]",> 2 µM,> 2 µM,0.05 to 0.5 µM
"Brc1n[nH]c2ncnc(N3CCN(Cc4cccc(OCc5ccccc5)c4)CC3)c12 [Entry 62, 3-bromo-4-[4-({3-[(phenylmethyl)oxy]phenyl}methyl)piperazin-1-yl]-1H-pyrazolo[3,4-d]pyrimidine]",> 2 µM,> 2 µM,0.05 to 0.5 µM
